Our source for the IC50 values is patent US9834548B2, “Pyridazine compounds as JAK inhibitors” (Portola Pharmaceuticals, Inc., priority 2014, dated 2017).

Holding throughout (type): biochemical
One assay has as its target JAK2 (Homo sapiens (Human), UniProt O60674). In words: Purified kinase assay (Z'-LYTE), JAK2. The following applies: Table 1; read-out: JAK2 IC50. Here is the method:
(§1) JAK and TYK2 tyrosine phosphorylation activity is measured using the Z′-LYTE™ Technology developed by Invitrogen Corporation (Carlsbad, Calif.). For JAK1, JAK2 and JAK3 the Z′-LYTE™ Kinase Assay Kit-Tyr6 Peptide (part number PV4122) was used. For TYK2 the Z′-LYTE™ Kinase Assay Kit-Tyr6 Peptide (part number PV3192) was used. The Z′-LYTE™ biochemical assay employs a fluorescence resonance energy transfer (FRET) coupled-enzyme format and is based on the differential sensitivity of phosphorylated and non-phosphorylated peptides to proteolytic cleavage. The assay uses a synthetic peptide substrate that is labeled with a donor fluorophore (coumarin) and an acceptor fluorophore (fluorescein) that make up a FRET pair. In the primary reaction (the Kinase Reaction), the kinase transfers the γ-phosphate of ATP to a single tyrosine residue on the substrate, while the presence of a kinase inhibitor in the primary reaction suppresses phosphorylation. In the secondary reaction (the Development Reaction), a site-specific protease (the Development Reagent) is added. The development buffer quenches the Kinase Reaction, while the protease recognizes and cleaves non-phosphorylated Z′-LYTE™ peptide substrate. Cleavage disrupts FRET between the donor and acceptor fluorophores on the non-phosphorylated substrate, while uncleaved, phosphorylated substrate maintains FRET.
(§2) To test the ability of candidate molecules to inhibit JAK tyrosine phosphorylation activity, molecules are reconstituted in 100% DMSO and serially diluted 1:10 in polypropylene v-bottom microtiter plates. The candidate molecules are then diluted 1:25 into kinase buffer and 2.5 μl transferred into duplicate wells of a 384 well low volume black microtiter assay plate (Corning, USA). The final DMSO concentration in the assay is 1%. The kinase reaction contains 2.5 μl of a candidate molecule, 5 μl of catalytic domain recombinant Kinase enzyme+Tyr peptide substrate (Invitrogen, CA) and ATP (Invitrogen, CA). The kinase reaction is allowed to proceed for 1 hour at room temperature. The protease reaction is initiated by the addition of Development Reagent (Invitrogen, CA). After 1 hour incubation at room temperature the fluorescence is measured using a FlexStation plate reader (Molecular Devices, Sunnyvale, Calif.). The reader settings used are as follows: Fluorescence mode, endpoint, top read, excitation 400 nm, emission 445 nm and 520 nm, Auto Cutoff 435 nm and 515 nm, PMT sensitivity high, 6 reads per well Inhibition of JAK activity is calculated as the percent phosphorylation of substrate in the presence of inhibitor compared to the percent phosphorylation of substrate in the absence of inhibitor. IC50's were derived using Xlfit 4.3 (IDBS, UK), 4 parameter logistic model 205: Y=(A+((B−A)/(1+((C/x)^D)))).

The target in a further assay is JAK3 (Homo sapiens (Human), UniProt P52333). The assay is described as follows: Purified kinase assay (Z'-LYTE), JAK3. Conditions: Table 1; read-out: JAK3 IC50. On the procedure: as §1, §2
A further assay concerns the target JAK1 (Homo sapiens (Human), UniProt P23458). In words: Purified kinase assay (Z'-LYTE), JAK1. Conditions: Table 1; read-out: JAK1 IC50. On the procedure: as §1, §2

Bounds are passed on as bounds.

JAK3, sequence (P52333 822-1111): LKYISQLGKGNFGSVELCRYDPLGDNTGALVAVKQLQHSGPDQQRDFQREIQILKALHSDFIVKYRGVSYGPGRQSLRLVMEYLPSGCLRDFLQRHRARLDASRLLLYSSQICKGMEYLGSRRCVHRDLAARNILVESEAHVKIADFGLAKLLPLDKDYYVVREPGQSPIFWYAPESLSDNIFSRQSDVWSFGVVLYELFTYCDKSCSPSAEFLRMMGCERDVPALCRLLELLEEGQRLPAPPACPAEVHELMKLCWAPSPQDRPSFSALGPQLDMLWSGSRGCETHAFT
JAK2, sequence (O60674 849-1124): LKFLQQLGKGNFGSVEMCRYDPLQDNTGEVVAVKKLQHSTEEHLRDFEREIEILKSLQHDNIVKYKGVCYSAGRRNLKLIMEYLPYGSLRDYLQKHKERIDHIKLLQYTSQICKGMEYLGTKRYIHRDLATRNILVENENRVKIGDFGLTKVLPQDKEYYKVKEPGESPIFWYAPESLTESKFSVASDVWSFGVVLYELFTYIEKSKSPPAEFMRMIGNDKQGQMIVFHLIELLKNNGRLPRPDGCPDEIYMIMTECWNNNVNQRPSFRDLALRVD
JAK1, sequence (P23458 875-1153): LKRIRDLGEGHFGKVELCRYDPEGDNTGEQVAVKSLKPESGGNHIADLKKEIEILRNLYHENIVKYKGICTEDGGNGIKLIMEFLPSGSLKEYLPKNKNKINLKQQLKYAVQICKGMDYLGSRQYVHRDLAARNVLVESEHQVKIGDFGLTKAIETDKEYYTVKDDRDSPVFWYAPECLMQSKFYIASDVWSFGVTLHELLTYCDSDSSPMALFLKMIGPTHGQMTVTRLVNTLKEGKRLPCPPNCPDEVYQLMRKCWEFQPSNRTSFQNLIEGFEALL

With `NC(=O)c1nnc(Nc2ccc(N3CCOCC3)cc2)cc1NC1CCC1` [Compound 6, 4-(cyclobutylamino)-6-((4-morpholinophenyl)amino)pyridazine-3-carboxamide], the IC50 (in general, the concentration at which inhibition is half-maximal) on JAK2 was 0.1 to 1 µM; at JAK3, 0.1 to 1 µM; on JAK1 it was above 1 µM.

As for `CC(=O)Nc1cccc(Nc2cc(NC3CCC3)c(C(N)=O)nn2)c1` [Compound 7, 6-((3-acetamidophenyl)amino)-4-(cyclobutylamino)pyridazine-3-carboxamide], the results for the IC50 on JAK2, at JAK3 and on JAK1 were 0.1 to 1 µM, 0.1 to 1 µM and above 1 µM, respectively.

In the case of `CC(=O)N1CCN(c2ccc(Nc3cc(NC4CCCCC4)c(C(N)=O)nn3)cc2)CC1` [Compound 8, 6-((4-(4-acetylpiperazin-1-yl)phenyl)amino)-4-(cyclohexylamino)pyridazine-3-carboxamide], the 50% inhibitory concentration (IC50) on JAK2 lay within 0.1 to 1 µM; at JAK3, 0.01 to 0.1 µM; on JAK1, 0.1 to 1 µM.

With `CC(=O)N1CCN(c2ccc(Nc3cc(NC(C)C)c(C(N)=O)nn3)cc2)CC1` [Compound 9], the IC50 on JAK2, at JAK3 and on JAK1 was above 1 µM throughout.

For the compound `CC(=O)N1CCN(c2ccc(Nc3cc(NC4CCCC4)c(C(N)=O)nn3)cc2)CC1` [Compound 10], the IC50 at JAK2, on JAK3 and at JAK1 was 0.1 to 1 µM each time.

As to `NC(=O)c1nnc(Nc2ccc(N3CCNCC3)cc2)cc1NC1CCCCC1` [Compound 11, 4-(cyclohexylamino)-6-((4-(piperazin-1-yl)phenyl)amino)pyridazine-3-carboxamide], the results for the IC50 at JAK2, at JAK3 and at JAK1 were 0.1 to 1 µM, 0.1 to 1 µM and above 1 µM, respectively.

As to `CC(C)Nc1cc(Nc2ccc(N3CCNCC3)cc2)nnc1C(N)=O` [Compound 12], the IC50 on JAK2, at JAK3 and on JAK1 was above 1 µM each time.

`NC(=O)c1nnc(Nc2ccc(N3CCNCC3)cc2)cc1NC1CCCC1` [Compound 13]: the results for the IC50 at JAK2, on JAK3 and on JAK1 were 0.1 to 1 µM, 0.1 to 1 µM and above 1 µM, respectively.

On to `CC(=O)N1CCN(c2ccc(Nc3cc(NCC(C)C)c(C(N)=O)nn3)cc2)CC1` [Compound 14], for which the 50% inhibitory concentration (IC50) was 0.1 to 1 µM on JAK2, 0.1 to 1 µM on JAK3 and above 1 µM at JAK1.

As to `CC(C)CNc1cc(Nc2ccc(N3CCNCC3)cc2)nnc1C(N)=O` [Compound 15], the IC50 at JAK2 was above 1 µM; at JAK3 it was 0.1 to 1 µM; on JAK1, above 1 µM.

Take `CC(=O)N1CCN(c2ccc(Nc3cc(NCC4CCC4)c(C(N)=O)nn3)cc2)CC1` [Compound 16]: the results for the IC50 on JAK2, on JAK3 and on JAK1 were 0.1 to 1 µM, 0.01 to 0.1 µM and above 1 µM, respectively.

In the case of `NC(=O)c1nnc(Nc2ccc(N3CCNCC3)cc2)cc1NCC1CCC1` [Compound 17], the IC50 at JAK2 was above 1 µM; on JAK3, 0.1 to 1 µM; at JAK1 it was above 1 µM.

With `NC(=O)c1nnc(Nc2ccc(N3CCNCC3)cc2)cc1NCc1cccs1` [Compound 22], the IC50 on JAK2 is above 1 µM; at JAK3, 0.01 to 0.1 µM; on JAK1 it was above 1 µM.

For the compound `COc1ccccc1CNc1cc(Nc2ccc(N3CCN(C(C)=O)CC3)cc2)nnc1C(N)=O` [Compound 24], the IC50 was 0.01 to 0.1 µM on JAK2, 0.01 to 0.1 µM at JAK3 and 0.1 to 1 µM on JAK1.

Take `CCC(=O)N1CCC(c2ccc(Nc3cc(NCc4ccccc4F)c(C(N)=O)nn3)cc2)CC1` [Compound 25]: the IC50 on JAK2 was above 1 µM; on JAK3, 0.01 to 0.1 µM; on JAK1, above 1 µM.

Regarding `CCC(=O)N1CCC(c2ccc(Nc3cc(NCc4cccc(F)c4)c(C(N)=O)nn3)cc2)CC1` [Compound 26], the concentration for half-maximal inhibition (IC50) is above 1 µM at JAK2, 0.01 to 0.1 µM on JAK3 and above 1 µM on JAK1.

For `CCC(=O)N1CCC(c2ccc(Nc3cc(NCc4cc(F)cc(F)c4)c(C(N)=O)nn3)cc2)CC1` [Compound 27], the IC50 was above 1 µM at JAK2, 0.01 to 0.1 µM on JAK3 and above 1 µM at JAK1.

Take `CC(=O)N1CCN(c2ccc(Nc3cc(NCc4ccccc4F)c(C(N)=O)nn3)nc2)CC1` [Compound 28]: the IC50 was in the range of 0.01 to 0.1 µM on JAK2, 0.001 to 0.01 µM on JAK3 and 0.1 to 1 µM on JAK1.

Take `CCC(=O)N1CCN(c2ccc(Nc3cc(NCc4cccc(F)c4)c(C(N)=O)nn3)cc2)CC1` [Compound 30]: the IC50 on JAK2 was 0.1 to 1 µM; on JAK3, 0.01 to 0.1 µM; at JAK1, above 1 µM.

For the compound `CCC(=O)N1CCN(c2ccc(Nc3cc(NCc4cc(F)cc(F)c4)c(C(N)=O)nn3)cc2)CC1` [Compound 31], the IC50 on JAK2 was 0.1 to 1 µM; at JAK3, 0.001 to 0.01 µM; at JAK1, above 1 µM.

Take `CCC(=O)N1CCN(c2ccc(Nc3cc(NCc4cc(F)ccc4F)c(C(N)=O)nn3)cc2)CC1` [Compound 32]: the concentration for half-maximal inhibition (IC50) on JAK2 was 0.01 to 0.1 µM; at JAK3, 0.001 to 0.01 µM; at JAK1, above 1 µM.

`CCC(=O)N1CCN(c2ccc(Nc3cc(NCc4cccc(F)c4F)c(C(N)=O)nn3)cc2)CC1` [Compound 34]: the figures for the IC50 at JAK2, on JAK3 and on JAK1 were 0.01 to 0.1 µM, 0.001 to 0.01 µM and above 1 µM, respectively.

For the compound `NC(=O)c1nnc(Nc2ccc(N3CCOCC3)cc2)cc1NCc1cccc(F)c1` [Compound 35], the values for the IC50 at JAK2, at JAK3 and on JAK1 were 0.1 to 1 µM, 0.01 to 0.1 µM and above 1 µM, respectively.

For `NC(=O)c1nnc(Nc2ccc(N3CCOCC3)cc2)cc1NCc1cc(F)cc(F)c1` [Compound 36], the results for the half-maximal inhibitory concentration (IC50) on JAK2, on JAK3 and at JAK1 were 0.1 to 1 µM, 0.01 to 0.1 µM and above 1 µM, respectively.

For the compound `NC(=O)c1nnc(Nc2ccc(N3CCOCC3)cc2)cc1NCc1cc(F)ccc1F` [Compound 37], the IC50 at JAK2 was 0.01 to 0.1 µM; at JAK3, 0.01 to 0.1 µM; at JAK1, above 1 µM.

With `NC(=O)c1nnc(Nc2ccc(N3CCOCC3)cc2)cc1NCc1cccc(F)c1F` [Compound 38], the IC50 is 0.1 to 1 µM at JAK2, 0.01 to 0.1 µM at JAK3 and above 1 µM at JAK1.

Take `NC(=O)c1nnc(Nc2ccc(N3CCOCC3)cc2)cc1NCc1c(F)cccc1F` [Compound 39]: the IC50 was 0.01 to 0.1 µM on JAK2, 0.001 to 0.01 µM on JAK3 and 0.1 to 1 µM on JAK1.

With `Cc1cc(Nc2cc(NCc3cccc(F)c3F)c(C(N)=O)nn2)ccc1N1CCOCC1` [Compound 40], the IC50 was above 1 µM at JAK2, 0.01 to 0.1 µM on JAK3 and above 1 µM on JAK1.

As for `NC(=O)c1nnc(Nc2cc(F)c(N3CCOCC3)c(F)c2)cc1NCc1cccc(F)c1F` [Compound 41], the IC50 at JAK2, at JAK3 and at JAK1 was above 1 µM in each case.

Regarding `NC(=O)c1nnc(Nc2ccc(N3CCOCC3)c(F)c2)cc1NCc1cccc(F)c1F` [Compound 43], the IC50 at JAK2 is above 1 µM; on JAK3 it was 0.01 to 0.1 µM; at JAK1 it was above 1 µM.

With `CN(C(=O)C1CC1)c1ccc(Nc2cc(NCc3cccc(F)c3F)c(C(N)=O)nn2)cc1` [Compound 44], the figures for the IC50 at JAK2, on JAK3 and at JAK1 were above 1 µM, 0.01 to 0.1 µM and above 1 µM, respectively.

Regarding `COC(=O)N(C)c1ccc(Nc2cc(NCc3cccc(F)c3F)c(C(N)=O)nn2)cc1` [Compound 45], the figures for the concentration for half-maximal inhibition (IC50) on JAK2, at JAK3 and on JAK1 were above 1 µM, 0.01 to 0.1 µM and above 1 µM, respectively.
